From the supplement of paper PMC10307832

Experiments:
Experiment in all cases: relative viability (nuclei count vs DMSO), 5 days (fraction); higher = more cells survive
[1] = test system: NCI-H727
In short: (§1)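 Lung cancer cell lines in 1536-well plates were dosed by pin tool the day after seeding, either with one drug alone or with a fixed anchor-drug dose plus five library-drug doses (not always all listed) in √10 steps. After 5 days, cells were fixed and their nuclei stained in one step (final 0.05% Triton X-100, 1% formaldehyde, 1 ug/ml Hoechst), then counted on 4× images. Relative viability is the nuclei count in treated wells divided by that in vehicle wells. Values are medians of duplicate plates.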

[2] = test system: NCI-H1650
In short: as §1

[3] = test system: SK-LU-1
In short: as §1

[4] = test system: LXF-289
In short: as §1

[5] = test system: LCLC-97TM1
In short: as §1

[6] = test system: HCC-827
In short: as §1

[7] = test system: NCI-H322M
In short: as §1

[8] = test system: NCI-H2405
In short: as §1

[9] = test system: HCC-44
In short: as §1

[10] = test system: NCI-H1437
In short: as §1

[11] = test system: BEN
In short: as §1

[12] = test system: HOP-62
In short: as §1

[13] = test system: NCI-H3122
In short: as §1

[14] = test system: NCI-H647
In short: as §1

[15] = test system: LCLC-103H
In short: as §1

[16] = test system: NCI-H1944
In short: as §1

[17] = test system: NCI-H2228
In short: as §1

[18] = test system: 201T
In short: as §1

[19] = test system: NCI-H2087
In short: as §1

[20] = test system: RERF-LC-KJ
In short: as §1

[21] = test system: CAL-12T
In short: as §1

`NC(=O)Nc1cc(-c2cccc(F)c2)sc1C(=O)N[C@H]1CCCNC1` [AZD7762] + C[C@@H](Oc1cc(-c2cnn(C3CCNCC3)c2)cnc1N)c1c(Cl)ccc(F)c1Cl [Crizotinib] (partner 1 µM) was tested, and the relative viability ([1]; first compound 0.01 µM) was 0.984, the relative viability ([1]; first compound 0.03162 µM) was 0.865 and the relative viability ([1]; first compound 0.1 µM) was 0.758. For the same compound, the relative viability ([1]; first compound 0.3162 µM) was 0.519, the relative viability ([1]; first compound 1 µM) was 0.259 and the relative viability ([2]; first compound 0.01 µM) was 1.18. For the same compound, the relative viability ([2]; first compound 0.03162 µM) was 1.03, the relative viability ([2]; first compound 0.1 µM) was 0.864 and the relative viability ([2]; first compound 0.3162 µM) was 0.603. The relative viability ([2]; first compound 1 µM) was 0.207, the relative viability ([3]; first compound 0.01 µM) was 0.991 and the relative viability ([3]; first compound 0.03162 µM) was 0.714. It also gave a relative viability ([3]; first compound 0.1 µM) of 0.38, a relative viability ([3]; first compound 0.3162 µM) of 0.226 and a relative viability ([3]; first compound 1 µM) of 0.285. For the same compound, the relative viability ([4]; first compound 0.01 µM) was 0.788, the relative viability ([4]; first compound 0.03162 µM) was 0.8 and the relative viability ([4]; first compound 0.1 µM) was 0.828. The relative viability ([4]; first compound 0.3162 µM) was 0.864, the relative viability ([4]; first compound 1 µM) was 0.816 and the relative viability ([5]; first compound 0.01 µM) was 0.385. For the same compound, the relative viability ([5]; first compound 0.03162 µM) was 0.337, the relative viability ([5]; first compound 0.1 µM) was 0.317 and the relative viability ([5]; first compound 0.3162 µM) was 0.448. The relative viability ([5]; first compound 1 µM) was 0.334, the relative viability ([6]; first compound 0.01 µM) was 0.948 and the relative viability ([6]; first compound 0.03162 µM) was 0.904. The relative viability ([6]; first compound 0.1 µM) was 0.933, the relative viability ([6]; first compound 0.3162 µM) was 0.965 and the relative viability ([6]; first compound 1 µM) was 0.843. For the same compound, the relative viability ([7]; first compound 0.01 µM) was 1.04, the relative viability ([7]; first compound 0.03162 µM) was 0.845 and the relative viability ([7]; first compound 0.1 µM) was 0.883. The relative viability ([7]; first compound 0.3162 µM) was 0.962, the relative viability ([7]; first compound 1 µM) was 0.417 and the relative viability ([8]; first compound 0.01 µM) was 0.94. For the same compound, the relative viability ([8]; first compound 0.03162 µM) was 0.802, the relative viability ([8]; first compound 0.1 µM) was 0.841 and the relative viability ([8]; first compound 0.3162 µM) was 0.819. It also gave a relative viability ([8]; first compound 1 µM) of 0.398, a relative viability ([9]; first compound 0.01 µM) of 0.892 and a relative viability ([9]; first compound 0.03162 µM) of 0.808. The relative viability ([9]; first compound 0.1 µM) was 0.854, the relative viability ([9]; first compound 0.3162 µM) was 0.787 and the relative viability ([9]; first compound 1 µM) was 0.745. For the same compound, the relative viability ([10]; first compound 0.01 µM) was 0.955, the relative viability ([10]; first compound 0.03162 µM) was 0.787 and the relative viability ([10]; first compound 0.1 µM) was 1.01. It also gave a relative viability ([10]; first compound 0.3162 µM) of 0.869, a relative viability ([10]; first compound 1 µM) of 1.02 and a relative viability ([11]; first compound 0.01 µM) of 0.911. The relative viability ([11]; first compound 0.03162 µM) was 0.924, the relative viability ([11]; first compound 0.1 µM) was 0.827 and the relative viability ([11]; first compound 0.3162 µM) was 0.859. For the same compound, the relative viability ([11]; first compound 1 µM) was 0.616, the relative viability ([12]; first compound 0.01 µM) was 0.786 and the relative viability ([12]; first compound 0.03162 µM) was 1.03. It also gave a relative viability ([12]; first compound 0.1 µM) of 1.17, a relative viability ([12]; first compound 0.3162 µM) of 1.1 and a relative viability ([12]; first compound 1 µM) of 1.16. The relative viability ([13]; first compound 0.01 µM) was 0.266, the relative viability ([13]; first compound 0.03162 µM) was 0.296 and the relative viability ([13]; first compound 0.1 µM) was 0.329. For the same compound, the relative viability ([13]; first compound 0.3162 µM) was 0.258, the relative viability ([13]; first compound 1 µM) was 0.283 and the relative viability ([14]; first compound 0.01 µM) was 1.15. It also gave a relative viability ([14]; first compound 0.03162 µM) of 1.11, a relative viability ([14]; first compound 0.1 µM) of 0.941 and a relative viability ([14]; first compound 0.3162 µM) of 0.546. It also gave a relative viability ([14]; first compound 1 µM) of 0.105, a relative viability ([15]; first compound 0.01 µM) of 1.15 and a relative viability ([15]; first compound 0.03162 µM) of 0.994. The relative viability ([15]; first compound 0.1 µM) was 1.08, the relative viability ([15]; first compound 0.3162 µM) was 1.01 and the relative viability ([15]; first compound 1 µM) was 1.04. It also gave a relative viability ([16]; first compound 0.01 µM) of 1.29, a relative viability ([16]; first compound 0.03162 µM) of 1.22 and a relative viability ([16]; first compound 0.1 µM) of 1.2. The relative viability ([16]; first compound 0.3162 µM) was 1.19, the relative viability ([16]; first compound 1 µM) was 0.918 and the relative viability ([17]; first compound 0.01 µM) was 0.423. It also gave a relative viability ([17]; first compound 0.03162 µM) of 0.588, a relative viability ([17]; first compound 0.1 µM) of 0.461 and a relative viability ([17]; first compound 0.3162 µM) of 0.436. It also gave a relative viability ([17]; first compound 1 µM) of 0.208, a relative viability ([18]; first compound 0.01 µM) of 0.969 and a relative viability ([18]; first compound 0.03162 µM) of 1.02. For the same compound, the relative viability ([18]; first compound 0.1 µM) was 1.03, the relative viability ([18]; first compound 0.3162 µM) was 1.04 and the relative viability ([18]; first compound 1 µM) was 1.16. The relative viability ([19]; first compound 0.01 µM) was 0.906, the relative viability ([19]; first compound 0.03162 µM) was 0.879 and the relative viability ([19]; first compound 0.1 µM) was 1.02. It also gave a relative viability ([19]; first compound 0.3162 µM) of 0.825, a relative viability ([19]; first compound 1 µM) of 0.846 and a relative viability ([20]; first compound 0.01 µM) of 0.897. The relative viability ([20]; first compound 0.03162 µM) was 0.894, the relative viability ([20]; first compound 0.1 µM) was 0.777 and the relative viability ([20]; first compound 0.3162 µM) was 0.809. It also gave a relative viability ([20]; first compound 1 µM) of 0.742, a relative viability ([21]; first compound 0.01 µM) of 0.735 and a relative viability ([21]; first compound 0.03162 µM) of 0.554. For the same compound, the relative viability ([21]; first compound 0.1 µM) was 0.486, the relative viability ([21]; first compound 0.3162 µM) was 0.33 and the relative viability ([21]; first compound 1 µM) was 0.105.
